Values belong to the compound of their own block, whether it stands above or below them.
Experiments:
[1] = test system: human lung cancer cell A549; assay: Anti-tumor activity assay (MTT), A549; type: cell-based; settings: 48 hrs, samples stored at −20° C. for one week, read-out: Inhibition rate; for inhibition at 0.1 µg/mL: final concentration 0.1 μg/mL; for inhibition at 1 µg/mL: final concentration 1 μg/mL; for inhibition at 10 µg/mL: final concentration 10 μg/mL
Procedure: (§1) These tests were carried out using conventional operations in the art. Specifically, the following materials and methods were employed:
(§2) Human cervical cancer cell Hela, human liver cancer cell SMMC-7721, human lung cancer cell A549, poorly differentiated human gastric adenocarcinoma cell BGC-823, human breast cancer cell MDA-MB-231.
(§3) To a bottle containing exponential growth phase cells in good condition, 0.25% trypsin solution was added. […] The cell suspension was seeded in a 96-well plate with an amount of 100 μL/well, incubated in a CO2 incubator for 24 hrs. 20 μL/well of tested compounds were added, followed by […], of 10% serum medium, and incubated for 48 hrs. 20 μL/well of MTT (5 mg/mL) was added to the 96-well plate, and the cells were incubated for 4 hrs in the incubator. After removing the supernatant, 150 μL/well of DMSO was added, and the cells were shaked in a horizontal swing bed for 10 minutes. Optical density value (OD value) of each well was measured with an ELISA analyzer at 490 nm, and cell inhibition rate was calculated. The corresponding solvent was used as negative control, and paclitaxel was used as positive control.

[2] = test system: human liver cancer cell SMMC-7721; assay: Anti-tumor activity assay (MTT), SMMC-7721; type: cell-based; settings: 48 hrs, samples stored at −20° C. for one week, read-out: Inhibition rate; for inhibition at 0.1 µg/mL: final concentration 0.1 μg/mL; for inhibition at 1 µg/mL: final concentration 1 μg/mL; for inhibition at 10 µg/mL: final concentration 10 μg/mL
Procedure: as §1, §2, §3

[3] = test system: poorly differentiated human gastric adenocarcinoma cell BGC-823; assay: Anti-tumor activity assay (MTT), BGC-823; type: cell-based; settings: 48 hrs, samples stored at −20° C. for one week, read-out: Inhibition rate; for inhibition at 0.1 µg/mL: final concentration 0.1 μg/mL; for inhibition at 1 µg/mL: final concentration 1 μg/mL; for inhibition at 10 µg/mL: final concentration 10 μg/mL
Procedure: as §1, §2, §3

[4] = test system: human breast cancer cell MDA-MB-231; assay: Anti-tumor activity assay (MTT), MDA-MB-231; type: cell-based; settings: 48 hrs, samples stored at −20° C. for one week, read-out: Inhibition rate; for inhibition at 0.1 µg/mL: final concentration 0.1 μg/mL; for inhibition at 1 µg/mL: final concentration 1 μg/mL; for inhibition at 10 µg/mL: final concentration 10 μg/mL
Procedure: as §1, §2, §3

[5] = test system: colon cancer cell COLO205; assay: Inhibition of tumor cell proliferation in vitro (MTT), COLO205; type: cell-based; settings: Homo sapiens, COLO 205, 48 hrs, read-out: Growth inhibition in vitro IC50
Procedure: (§4) The activity assay of the compounds of the invention was carried out through common methods in the art. Commercially available Sunitinib was used as positive control, and lung cancer cell H460, colon cancer cell COLO205 and HT29, breast cancer cell A435 were used as exemplary tumor cells. The tested compounds were prepared by the methods disclosed in the Examples above.
(§5) A certain amount (100 μL/well, 0.5−1×10^4 cells/mL) of lung cancer cell H460, colon cancer cell COLO205, and breast cancer cell A435, etc. in logarithmic growth phase were seeded in a 96-well plate, and incubated in an incubator for 24 hrs at 37° C. and 5% CO2. Afterwards, tested compounds and positive control (20 μL/wells) were added, followed by 80 µL of 10% serum medium, and then the tumor cells were incubated for further 48 hrs at 37° C. and 5% CO2. Afterwards, MTT (5 mg/mL) was added to the 96-well plates (20 μL/well), and the cells were incubated for another 4 h. After removing the supernatant, the cells were dissolved with DMSO (150 μL/well) and measured with a microplate reader at 490 nm.

[6] = test system: Human cervical cancer cell Hela; assay: Anti-tumor activity assay (MTT), Hela; type: cell-based; settings: 48 hrs, samples freshly prepared with DMSO, read-out: Inhibition rate; for inhibition at 0.1 µg/mL: final concentration 0.1 μg/mL; for inhibition at 1 µg/mL: final concentration 1 μg/mL; for inhibition at 10 µg/mL: final concentration 10 μg/mL
Procedure: as §1, §2, §3

[7] = test system: Fibroblast NIH/3T3; assay: Inhibition of fibroblast NIH/3T3 proliferation (MTT); type: cell-based; settings: Mus musculus, NIH3T3, 48 h, read-out: Inhibition of NIH/3T3 cell proliferation in vitro IC50
Text: The method commonly used at present for studying fibroblast proliferation associated diseases, i.e., for studying tissue and organ fibrosis, is measuring effects of test compounds on NIH/3T3 cell proliferation (Gao Z. M., Wan K., Effect of inhibition of NIH/3T3 cell proliferation by Cantharidin on prevention and treatment of organ and tissue fibrosis. Chinese Journal of Clinical Rehabilitation, 2004 (2). Tao Y. Y., Wang X. L., Effects of Salvianolic Acid-B on TGF-β1/ERK Signaling Transduction in NIH/3T3 Fibroblast. Journal of Capital Medical University, 2007 (2)).
Fibroblast NIH/3T3 in logarithmic growth phase was seeded in a 96-well plate, by a certain number of cells (100 μL/well, 0.5−1×10^4 cells/mL). After incubating for 24 h, the screened samples (20 μl/well) were added (directly added after cell suspension was seeded in the plate), incubated for further 48 h at 37° C. and 5% CO2. Afterwards, MTT (5 mg/mL) was added to the 96-well plate (20 μL/well). The cells were incubated for another 4 h, and then dissolved with DMSO (150 μL/well) and measured with a microplate reader at 490 nm. The inhibition rate and IC50 were calculated.

[8] = test system: human colon cancer HT-29 cells transplanted in nude mice; assay: Growth inhibition of human cancer HT-29 cells transplanted in nude mice; type: in vivo; settings: for Body weight d0 / Body weight d21: nude mice with HT-29 tumor; for Body weight d0: d0, time of administration in separate cages; for Body weight d0 / TV d0: 30 mg/kg group; for Body weight d21 / T/C (%) / RTV / TV d21: 30 mg/kg intragastrically once a day for 21 days; for T/C (%): relative tumor proliferation rate TRTV/CRTV; for RTV: relative tumor volume TVt/TV0; for TV d0: tumor volume at d0, time of administration in separate cages; for TV d21: tumor volume at d21
Procedure: A piece of tumor tissue in vigorous growth phase was obtained and cut into the size of about 1.5 mm^3, and subcutaneously inoculated into the right axillary region of nude mice aseptically. Diameters of transplanted tumors in nude mice were measured with a vernier caliper. After tumors grew to 100˜300 mm^3, the animals were randomly divided into 6 groups: model control group, Sunitinib group (30 mg/kg), Compound 1 group (30 mg/kg), Compound 2 group (30 mg/kg), Compound 3 group (30 mg/kg), Compound 4 group (30 mg/kg). […] Meanwhile, the negative control group was administered equivalent amount of sterile saline. The dynamic observation of antitumor effects of compounds 1-4 and Sunitinib was performed by measuring tumor diameters. […] The general behavior of nude mice was observed and recorded daily. (1) Tumor volume (TV), calculated by the equation: […] wherein a, b represent length and width, respectively. […] RTV=TVt/TV0 wherein TV0 represents the tumor volume at the beginning of administration in separated cages (ie. d0), TVt represents the tumor volume of each measurement. […] T/C %=(TRTV/CRTV)×100% TRTV: RTV of positive control group and each test compound group. CRTV: RTV of model control group.

[9] = test system: Lung cancer cell H460; assay: Inhibition of tumor cell proliferation in vitro (MTT), H460; type: cell-based; settings: Homo sapiens, NCI-H460, 48 hrs, read-out: Growth inhibition in vitro IC50
Procedure: as §4, §5

[10] = test system: breast cancer cell A435; assay: Inhibition of tumor cell proliferation in vitro (MTT), A435; type: cell-based; settings: 48 hrs, read-out: Growth inhibition in vitro IC50
Procedure: as §4, §5

melting point: 263 to 266 °C
IC50 [5]: 110 nM
IC50 [9]: 140 nM
IC50 [10]: 68 nM
Compound: Cc1[nH]c(/C=C2\C(=O)Nc3ccc(F)cc32)c(C)c1C(=O)NCC1CCCCN1 (centres unmarked) [Compound 3]
inhibition at 0.1 µg/mL [1]: 11.9%
inhibition at 1 µg/mL [1]: 22.7%
inhibition at 10 µg/mL [1]: 94.2%
inhibition at 0.1 µg/mL [2]: -18.6%
inhibition at 1 µg/mL [2]: 4%
inhibition at 10 µg/mL [2]: 62.1%
inhibition at 0.1 µg/mL [3]: -5.42%
inhibition at 1 µg/mL [3]: 17%
inhibition at 10 µg/mL [3]: 78.8%
inhibition at 0.1 µg/mL [4]: -5.4%
inhibition at 1 µg/mL [4]: 0.5%
inhibition at 10 µg/mL [4]: 88.6%
inhibition at 0.1 µg/mL [6]: -3.2%
inhibition at 1 µg/mL [6]: 50.8%
inhibition at 10 µg/mL [6]: 98%
IC50 [7]: 530 nM
Body weight d0 [8]: 20.6 ± 2.0 g
Body weight d21 [8]: 20.8 ± 2.3 g
T/C (%) [8]: 15.0%
RTV [8]: 1.3 ± 0.7
TV d0 [8]: 196.7 ± 62.7 mm^3
TV d21 [8]: 290.4 ± 238.4 mm^3

melting point: 232 to 236 °C
IC50 [5]: 78 nM
IC50 [9]: 61 nM
IC50 [10]: 63 nM
Compound: CCN1CCCC1CNC(=O)c1c(C)[nH]c(/C=C2\C(=O)Nc3ccc(F)cc32)c1C (centres unmarked) [Compound 1, N-[(1-ethylpyrrolidin-2-yl)methyl]-5-(5-fluoro-2-oxo-1,2-dihydroindole-3-methylene)-2,4-dimethyl-1H-pyrrole-3-formamide]
inhibition at 0.1 µg/mL [1]: 18.6%
inhibition at 1 µg/mL [1]: 31.1%
inhibition at 10 µg/mL [1]: 99.3%
inhibition at 0.1 µg/mL [2]: -21.2%
inhibition at 1 µg/mL [2]: -0.47%
inhibition at 10 µg/mL [2]: 88.5%
inhibition at 0.1 µg/mL [3]: 14.8%
inhibition at 1 µg/mL [3]: 20%
inhibition at 10 µg/mL [3]: 93.9%
inhibition at 0.1 µg/mL [4]: -8.3%
inhibition at 1 µg/mL [4]: 6.9%
inhibition at 10 µg/mL [4]: 92.2%
inhibition at 0.1 µg/mL [6]: 4.69%
inhibition at 1 µg/mL [6]: 32.5%
inhibition at 10 µg/mL [6]: 97.4%
IC50 [7]: 205 nM
growth inhibition of human colon cancer HT-29 cells transplanted in nude mice (in words) ([8]; 30 mg/kg continuously administered intragastrically): strongest inhibition of tumor proliferation
Body weight d0 [8]: 20.2 ± 1.9 g
Body weight d21 [8]: 21.5 ± 1.3 g
T/C (%) [8]: 10.1%
RTV [8]: 0.9 ± 0.2
TV d0 [8]: 194.7 ± 57.7 mm^3
TV d21 [8]: 163.7 ± 33.6 mm^3
